# Patent US11299457B2, “Chemical compounds” (GlaxoSmithKline Intellectual Property (No. 2) Limited, priority 2012, dated 2022)
# How the values were obtained:
# [1] = tested on: castrated male rat (ORX): levator ani muscle and prostate; assay: Castrated male rat model (ORX rat); type: in vivo; settings: for prostate sparing: defined as at least a 2:1 ratio of levator ani ED50 to prostate ED50; for levator ani hypertrophy: favorable = 30% or greater increase in levator ani weight vs vehicle-treated castrates, dosed orally at up to 10 mg/kg/day
# Excerpt: Castrated Male Rat Model (ORX Rat)
# The activity of the compounds of the present invention as modulators of the androgen receptor was investigated using a castrated male rat model (ORX) as described in C. D. Kockakian, Pharmac. Therap. B 1(2), 149-177 (1975); C. Tobin and Y. Joubert, Developmental Biology 146, 131-138 (1991); J. Antonio, J. D. Wilson and F. W. George, J Appl. Physiol. 87(6) 2016-2019 (1999)) the disclosures of which herein are included by reference.
# Androgens have been identified as playing important roles in the maintenance and growth of many tissues in both animals and humans. Muscles, like the levator ani and bulbocavernosus, and sexual accessory organs, such as the prostate glands and seminal vesicles have high expression levels of the androgen receptor and are known to respond quickly to exogenous androgen addition or androgen deprivation through testicular ablation. Castration produces dramatic atrophy of muscle and sexual accessory organs; whereas the administration of exogenous androgens to the castrated animal results in effective hypertrophy of these muscles and sexual accessory organs. Although the levator ani muscle, also known as the dorsal bulbocavernosus, is not ‘true skeletal muscle’ and definitely sex-linked, it is reasonable to use this muscle to screen muscle anabolic activities of test compounds because of its androgen responsiveness and simplicity of removal.
# Male Sprague-Dawley rats weighing 160-180 grams were used in the assay. The rats were singly caged upon receiving and throughout the study. Bilateral orchidectomies were performed in sterilized surgical conditions under isoflurane anesthesia. An anteroposterior incision was made in the scrotum. The testicles were exteriorized and the spermatic artery and vas deferens were ligated with 4.0 silk 0.5 cm proximal to the ligation site. The testicles then were removed by a surgical scissors distal to the ligation sites. The tissue stumps were returned to the scrotum, the scrotum and overlying skin were closed by a surgical stapler. The Sham-ORX rats underwent all procedures except ligation and scissors cutting. The rats were assigned randomly into study groups 7-10 days post surgery based on the body weight.
# Dihydrotestosterone (DHT) and the standard SARM, S-22, (J. Pharma. Exper. Thera. Vol 315, p. 230) were used as a positive control (1-10 mg/kg s.c. for DHT and 0.1 to 3 mg/kg p.o. for S-22). Compounds of the current invention were administered subcutaneously or orally for 4-28 days. Alternatively, some compounds of the current invention were administered subcutaneously or orally for 7-49 days. The rats were weighed daily and doses were adjusted accordingly. The general well being of the animal was monitored throughout the course of the study.
# At the end of the study, the rats were euthanized in a CO2 chamber. The ventral prostate glands (VP), seminal vesicles (SV), levator ani muscle (LA) and bulbocavernosus (BC) were carefully dissected. The tissues were blotted dry; the weights were recorded, and then saved for histological and molecular analysis. The VP and SV weights serve as androgenic indicators and LA and BC as anabolic indicators. The ratio of anabolic to androgenic activities was used to evaluate the test compounds. Serum luteinizing hormone (LH), follicle stimulating hormone (FSH) and other potential serum markers of anabolic activities were also analyzed.
# In general, preferred compounds show levator ani hypertrophy and very little prostate stimulation.
# The compounds shown in Examples 9, 20, 26, 27, 33, 51, 52, and 53 were tested in the castrated male rate model essentially as described above. Test compounds were employed in free or salt form. […] Prostate sparing was defined as at least a 2:1 ratio of levator ani ED50 to prostate ED50. The ED50 is defined as 50% of the maximum response above the vehicle treated castrate level. […]
# [2] = molecular target: androgen receptor (MBP-hAR-LBD, rat androgen ligand binding domain) (Rattus norvegicus (Rat), UniProt P15207); assay: Androgen receptor fluorescence polarization assay; settings: maximum of curve fit; max/min compared to absence of compound and 10^-5 M control compound
# Protocol: The androgen receptor fluorescence polarization assay is used to investigate the interaction of the compounds with the androgen receptor.
# Compounds are added to the 384 well black low-volume plates to a final volume of 0.1 μL. DTT and DMSO are added to the chilled assay buffer just before beginning assay. Sufficient Fluormone AL Red and AR-LBD are defrosted on ice and added to the chilled buffer in a glass tube to give a final concentration of 1 nM and 100 nM, (for current batch) respectively. A volume of 10 μL of the assay mix is added to compound plates with a multidrop. […] The plates are counted in a Discovery Analyst with suitable 535 nm excitation and 590 nm emission interference filters (Dichroic 561 nM). […] Test compounds are dissolved and diluted in DMSO. Compounds are assayed in singlicate, a four parameter curve fit of the following form being applied
# [formula] where a is the minimum, b is the Hill slope, c is the IC50 and d is the maximum.
# Data is presented as the mean pIC50 with the standard error of the mean of n experiments.
# Sequence of androgen receptor (MBP-hAR-LBD, rat androgen ligand binding domain) (P15207 651-882): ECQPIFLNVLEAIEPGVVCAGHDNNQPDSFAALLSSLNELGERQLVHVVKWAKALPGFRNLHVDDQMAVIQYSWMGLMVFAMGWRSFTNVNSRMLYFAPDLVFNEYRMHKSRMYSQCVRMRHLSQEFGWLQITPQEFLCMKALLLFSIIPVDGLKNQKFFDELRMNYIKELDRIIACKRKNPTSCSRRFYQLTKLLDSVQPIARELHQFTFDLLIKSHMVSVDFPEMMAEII
SMILES,prostate sparing [1],levator ani hypertrophy [1],% Max [2] [%]
"Cc1cc2c(C(F)(F)F)c(C#N)ccc2n1C(C)CS(C)(=O)=O (stereo not shown) [Example 9, 2-Methyl-1-(1-(methylsulfonyl)propan-2-yl)-4-(trifluoromethyl)-1H-indole-5-carbonitrile]",spared the prostate,favorable levator ani hypertrophy,–
"C[C@H](n1ccc2c(C(F)(F)F)c(C#N)ccc21)C(C)(C)O [Example 21, (S)-1-(3-Hydroxy-3-methylbutan-2-yl)-4-(trifluoromethyl)-1H-indole-5-carbonitrile]",–,–,100
"CC(CS(C)(=O)=O)n1ccc2c(C(F)(F)F)c(C#N)ccc21 (stereo not shown) [Example 26, 1-(1-(Methylsulfonyl)propan-2-yl)-4-(trifluoromethyl)-1H-indole-5-carbonitrile]",spared the prostate,favorable levator ani hypertrophy,–
"C[C@H](CS(C)(=O)=O)n1ccc2c(C(F)(F)F)c(C#N)ccc21 [Example 27, (R)-1-(1-(Methylsulfonyl)propan-2-yl)-4-(trifluoromethyl)-1H-indole-5-carbonitrile]",spared the prostate,favorable levator ani hypertrophy,–
"CC[C@H](c1cncc(C#N)c1)n1ccc2c(C#N)c(C#N)ccc21 [Example 51, (R)-1-(1-(5-Cyanopyridin-3-yl)propyl)-1H-indole-4,5-dicarbonitrile]",spared the prostate,favorable levator ani hypertrophy,–
"C[C@@H](n1ccc2c(Cl)c(C#N)ccc21)[C@](C)(O)C(F)(F)F [Example 52, 4-Chloro-1-((2R,3S)-4,4,4-trifluoro-3-hydroxy-3-methylbutan-2-yl)-1H-indole-5-carbonitrile]",spared the prostate,favorable levator ani hypertrophy,–
"C[C@@H](n1ccc2c(C(F)(F)F)c(C#N)ccc21)[C@](C)(O)C(F)(F)F [Example 53, 1-((2R,3S)-4,4,4-Trifluoro-3-hydroxy-3-methylbutan-2-yl)-4-(trifluoromethyl)-1H-indole-5-carbonitrile]",spared the prostate,favorable levator ani hypertrophy,–
